Experimental findings from patent US20030229108A1, “Barbituric acid analogs as therapeutic agents” (priority 2000, published 2003) are described below.

Usually IC50 stands for the concentration needed to halve the response being measured.

Molecules are shown by their SMILES. Like-named read-outs stand apart in the source and are kept apart here.

Experiment [1] has as its target T1, interaction between HIF-1α and p300 (His-HIF-1α / GST-p300) (Homo sapiens, UniProt Q09472+Q16665).
T1 construct: corresponding to the C-terminal 390 amino acids into vector pET28a; A plasmid containing the N-terminal 595 amino acids of human p300; made in house; host or cells: E. coli
The experiment is described as follows: Primary assay: fluorescence-based (DELFIA) screening assay for inhibition of the HIF-1α/p300 interaction. The class given is binding. As for the experimental part:
Candidate compounds were assessed for their ability to inhibit the interaction between HIF-1α and p300 using a high throughput fluorescence-based screening assay (DELFIA) as follows.
A plasmid expressing His-HIF-1α fusion protein was constructed by PCR, by amplifying and subcloning a fragment of the human HIF-1α cDNA (NCBI GenBank, accession number AH006957) corresponding to the C-terminal 390 amino acids into vector pET28a (Novagen®, Madison, Wis., USA). A plasmid containing the N-terminal 595 amino acids of human p300 (NCBI GenBank, accession number U01877) inserted into vector pGEX2T (Pharmacia®, Little Chalfont, Bucks, UK) was used for the production of GST-p300 fusion protein. The recombinant proteins were produced in E. coli. His-HIF-1α was purified using Ni-NTA agarose beads, according to manufacture's method (Qiagen®, Crawley, West Sussex, UK). GST-p300 was purified using Glutathione-sepharose beads (Amersham Pharmacia®, Little Chalfont, Bucks, UK) according to manufacturer's instructions. A titration of every batch of p300 was carried out in order to determine the optimum dilution of the protein to obtain at least a 10:1 ratio signal to noise in the binding assay.
The assay was performed in 96-well Polysorb plates (Nalge Nunc International®, Rochester, N.Y., USA) as follows. Plates were coated with His-HIF-1α at 50 ng/well in […] and incubated overnight at 4° C. The plates were then washed 3 times with deionized water and blocked with 100 μL/well 3% BSA in PBS for 3 hours at 4° C. After washing 3 times as before, GST-p300 was added at the appropriate dilution (1:800 in this screening) in binding buffer (50 mM HEPES pH 7.5, 50 mM NaCl, 0.1% BSA, 0.5 mM DTT). The reaction was incubated at room temperature for 1 hour. Plates were washed 3 times and anti-GST Europium-conjugated antibody (from Wallac®, Turku, Finland) was added at 50 ng/well in […]. After 45 minutes incubation, plates were washed 3 times as before. Then, 100 μL/well enhancement solution (from Wallac®, Catalog No. 1244-105) was added and allowed to react for 15 minutes at room temperature. Plates were read on a Victor 2 plate reader (from Wallac®).

Experiment [2] relates to VEGF promoter (VEGF-luciferase reporter) in Hepatoma 3B (hep3B) cells. The experiment is described as follows: VEGF-luciferase cell-based reporter assay, desferoxamine-induced, Hepatoma 3B (hep3B) cells. As to conditions: 15 h, read-out: Secondary Assay VEGF-luciferase IC50. The source says:
This cell-based reporter assay involves the use of a luciferase reporter gene under the direct control of the VEGF promoter. Induction of HIF using desferoxamine leads to the transcription of luciferase through activation of the VEGF (Vascular Endothelial Growth Factor) promoter, which in turn leads to an increase in luciferase activity, which can be measured using most commercially available luciferase assay kits. Molecules that disrupt the HIF complex cause inhibition of HIF-dependent luciferase activation and lead to a reduction in luciferase activity. This assay allows the activity of the compounds to be assessed against the VEGF promoter, which is essential for VEGF production and subsequent angiogenesis.
Hepatoma 3B (hep3B) cells (ATCC Ref. No. HB-8064) were plated in 24-well plates at 2×10^4/well in 500 μL DMEM/10% FCS, and were transfected the following day using Fugene 6 (Roche Biochemicals®, Lewes, E. Sussex, UK). Transfection mixtures per well contained 6 μL 10% Fugene, 200 ng VEGF-luciferase reporter (rat VEGF promoter, NCBI GenBank, accession number U22373, Levy et al., 1995) and 2 ng TK-renilla (Promega®, Madison, Wis., USA) (for transfection efficiency control). Transfection was performed as recommended by manufacturer. Compounds were added the following day. After 1 hour incubation at 37° C., desferoxamine (Sigma®, Dorset, UK) was added at 100 μM to induce HIF activity. Duplicate wells without desferoxamine were run in parallel. Cells were harvested 15 hours later, and luciferase activity was measured using Dual Luciferase Assay System (Promega®, see also Technical Manual, Part #TM040, Instructions for Use of Products E1910 and E1960, revised May/1999).

Setting [3] is: read-out: Primary Assay Inhibition IC50.

T1 sequence (Q16665 437-826 limits assumed): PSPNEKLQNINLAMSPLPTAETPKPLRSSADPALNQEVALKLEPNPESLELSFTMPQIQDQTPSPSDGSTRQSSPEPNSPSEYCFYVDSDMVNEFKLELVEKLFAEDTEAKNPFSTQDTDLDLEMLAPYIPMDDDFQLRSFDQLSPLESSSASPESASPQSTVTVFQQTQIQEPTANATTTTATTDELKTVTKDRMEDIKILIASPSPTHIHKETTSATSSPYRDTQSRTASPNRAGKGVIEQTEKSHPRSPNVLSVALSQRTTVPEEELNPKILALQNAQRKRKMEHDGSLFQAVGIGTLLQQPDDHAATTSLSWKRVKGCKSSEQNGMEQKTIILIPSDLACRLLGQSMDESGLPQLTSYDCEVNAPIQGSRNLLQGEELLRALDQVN
T1 sequence (Q09472 1-595 limits assumed): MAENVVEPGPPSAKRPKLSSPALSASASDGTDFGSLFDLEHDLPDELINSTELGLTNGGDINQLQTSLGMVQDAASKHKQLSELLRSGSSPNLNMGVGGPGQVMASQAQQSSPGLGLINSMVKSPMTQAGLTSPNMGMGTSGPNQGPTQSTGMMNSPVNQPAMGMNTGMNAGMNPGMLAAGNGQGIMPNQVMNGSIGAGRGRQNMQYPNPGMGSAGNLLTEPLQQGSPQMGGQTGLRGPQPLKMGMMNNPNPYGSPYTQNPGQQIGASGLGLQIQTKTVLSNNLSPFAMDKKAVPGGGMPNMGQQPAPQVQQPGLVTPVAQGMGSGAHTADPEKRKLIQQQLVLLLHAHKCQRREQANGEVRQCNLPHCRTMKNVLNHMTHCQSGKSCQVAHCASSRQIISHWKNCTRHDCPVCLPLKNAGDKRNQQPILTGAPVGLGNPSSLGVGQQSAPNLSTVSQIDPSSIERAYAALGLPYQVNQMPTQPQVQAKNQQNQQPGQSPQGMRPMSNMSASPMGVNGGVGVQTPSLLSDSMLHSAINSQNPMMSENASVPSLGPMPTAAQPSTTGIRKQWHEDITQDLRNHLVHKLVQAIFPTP

In experiment [1], `O=C1NC(=O)C(=Cc2ccccc2)C(=O)N1` [PX089368] had an IC50 of 350 µM.

`O=C1NC(=O)C(=Cc2ccc(O)c(O)c2)C(=O)N1` [PX089374] displayed an IC50 in experiment [1] of 230 µM.

As to `CCN(CC)c1ccc(C=C2C(=O)N(c3ccccc3)C(=S)N(c3ccccc3)C2=O)cc1` [PX089647], in experiment [1], it took 100 µM to reach half-maximal inhibition (IC50).

As for `O=C1NC(=S)N(c2ccc(Cl)cc2)C(=O)/C1=C/C=C/c1ccco1` [PX106291], the midpoint of inhibition in experiment [1], the IC50, lay at 80 µM.

Consider `COc1ccc(C=C2C(=O)NC(=S)NC2=O)cc1OCc1ccccc1` [PX105990, 5-(3-Benzyloxy-4-methoxy-benzylidene)-2-thioxo-dihydro-pyrimidine-4,6-dione], for which, in experiment [1], the IC50 was 20 µM.

Consider `Cn1c(=O)c2c(ncn2CC(O)CN2CCN(c3cccc(Cl)c3)CC2)n(C)c1=O` (stereo not shown) [P2082796], for which, in experiment [1] (setting [3]), the IC50 was 150 µM.

Regarding `O=C1NC(=O)C(=Cc2ccc(Cl)cc2Cl)C(=O)N1` [PX089367], in experiment [1], the IC50 amounted to 200 µM.

For `COc1ccc2cccc(/C=C3/C(=O)NC(=S)N(c4ccc(Br)cc4)C3=O)c2c1` [PX106265], the IC50 in experiment [2] was 32 µM; in experiment [1] it was 50 µM.

`Cc1cc(C=C2C(=O)NC(=S)NC2=O)c(C)n1-c1sc2c(c1C#N)CCCC2` [PX106174] displayed an IC50 in experiment [1] of 43 µM.

On to `COc1cc(C=C2C(=O)NC(=O)NC2=O)ccc1O` [PX072008], for which the IC50 in experiment [1] turned out to be 300 µM.

With `N=c1c2nc(-c3ccccc3)[nH]c(=O)c2[nH]c(=O)n1-c1ccccc1` [P2082132], the IC50 in experiment [1] (setting [3]) came to 125 µM.

The molecule `COc1ccc(C=C2C(=O)NC(=O)NC2=O)cc1OC` [PX072004] displayed an IC50 in experiment [1] of 250 µM.

For the molecule `Cn1c(=O)[nH]c(=O)c2c1nc(N)n2CC(O)COc1ccc(Cl)cc1` (stereo not shown) [PX084819], the IC50 is 50 µM in experiment [2] and 10 µM in experiment [1] (setting [3]).

`COc1ccc(-c2nc3c(=N)n(-c4cccc(C(F)(F)F)c4)c(=O)[nH]c3c(=O)[nH]2)cc1OC` [P2082229]: the IC50 in experiment [1] (setting [3]) amounted to 125 µM.

Molecule `COc1ccccc1C=C1C(=O)NC(=S)NC1=O` [PX105993, 5-(2-Methoxy-benzylidene)-2-thioxo-dihydro-pyrimidine-4,6-dione] registered an IC50 in experiment [1] of 80 µM.

Turning to `COc1ccc(-c2nc3c(=N)n(-c4ccc(Cl)cc4)c(=O)[nH]c3c(=O)[nH]2)cc1` [PX081770], the IC50 in experiment [1] (setting [3]) came to 125 µM.

The molecule `O=C1NC(=S)N(c2ccc(F)cc2)C(=O)/C1=C/c1ccc2c(c1)OCO2` [PX106255] registered a half-inhibitory concentration (IC50) in experiment [1] of 3 µM.

Consider `O=C1NC(=S)NC(=O)C1=Cc1ccc(Cl)cc1` [PX089640, 5-(4-Chloro-benzylidene)-2-thioxo-dihydro-pyrimidine-4,6-dione], for which the IC50 in experiment [1] turned out to be 100 µM.

In experiment [1], `O=C1NC(=O)C(=Cc2cccc(OCc3ccccc3)c2)C(=O)N1` [PX075245] displayed an IC50 of 125 µM.

In turn, `O=C1NC(=S)NC(=O)C1=Cc1cccs1` [PX089638] had an IC50 in experiment [1] of 130 µM.

`O=C1NC(=S)N(c2ccc(F)cc2)C(=O)/C1=C/c1ccc(-c2ccc(Cl)c(C(=O)O)c2)o1` [PX106244] returned an IC50 in experiment [1] of 40 µM.

Take `O=C1NC(=S)NC(=O)C1=C/C=N/Nc1ccccc1` [PX089619]: half-maximal inhibition in experiment [1] (IC50) was put at 180 µM.

Take `N=c1c2nc(-c3ccc4c(c3)OCO4)[nH]c(=O)c2[nH]c(=O)n1-c1ccc(Cl)cc1` [P2082202]: the IC50 in experiment [1] (setting [3]) was 250 µM.

As to `CCOc1ccc(Br)cc1C=C1C(=O)NC(=S)NC1=O` [PX089633], the IC50 in experiment [2] came out at 50 µM; in experiment [1], 70 µM.

In the case of `COc1cccc(-c2nc3c(=N)n(-c4ccc(Cl)cc4)c(=O)[nH]c3c(=O)[nH]2)c1O` [P2081958], the IC50 in experiment [1] (setting [3]) is 125 µM.

In turn, `CC(=O)Nc1ccc(C=C2C(=O)NC(=S)NC2=O)cc1` [PX089632, N-[4-(4,6-Dioxo-2-thioxo-tetrahydro-pyrimidin-5-ylidenemethyl)-phenyl]-acetamide] showed a 50% inhibitory concentration (IC50) in experiment [1] of 15 µM.

`O=C1NC(=O)C(=Cc2cccc(O)c2)C(=O)N1` [PX089376] came in with an IC50 in experiment [1] of 200 µM.

Molecule `COc1ccc(C=C2C(=O)NC(=S)NC2=O)cc1OC` [PX075262, 5-(3,4-Dimethoxy-benzylidene)-2-thioxo-dihydro-pyrimidine-4,6-dione] had an IC50 in experiment [1] of 65 µM.

For `O=C1NC(=O)C(=Cc2ccccc2Cl)C(=O)N1` [PX083677], the IC50 in experiment [1] was 400 µM.

In the case of `Cc1cc2nc3c(=O)[nH]c(=O)nc-3n(CC(O)C(O)C(O)CO)c2cc1C` (stereo not shown) [P2083033], the 50% inhibitory concentration (IC50) in experiment [2] came out at 20 µM.

In the case of `O=C1NC(=S)NC(=O)C1=Cc1ccccc1OCc1ccccc1F` [PX106343], the IC50 in experiment [2] was 100 µM; in experiment [1], 49 µM.

Consider `O=C1NC(=S)NC(=O)C1=Cc1ccc(/C=C/c2ccccc2)cc1` [px106027, 5-(4-Styryl-benzylidene)-2-thioxo-dihydro-pyrimidine-4,6-dione], for which the IC50 in experiment [2] came to 75 µM.

`COc1cc(C=C2C(=O)NC(=O)NC2=O)c([N+](=O)[O-])cc1OCc1ccccc1` [PX069153] came in with an IC50 in experiment [1] of 200 µM.

`O=C1NC(=O)C(=Cc2ccc3c(c2)OCO3)C(=O)N1` [PX075240] displayed a half-maximal inhibitory concentration (IC50) in experiment [1] of 100 µM.

In turn, `O=C1NC(=O)C(=Cc2c(F)cccc2Cl)C(=O)N1` [PX069119] displayed an IC50 in experiment [1] of 250 µM.

Take `Cc1ccc(N2C(=O)/C(=C/c3ccoc3)C(=O)NC2=S)cc1` [PX106297]: the values for the IC50 in experiment [2] and in experiment [1] were 100 µM and 32 µM, respectively.

With `O=C1NC(=O)C(=C/C=C/c2ccccc2)C(=O)N1` [PX089370], 225 µM corresponded to half-maximal inhibition in experiment [1] (IC50).

As for `O=C1NC(=O)C(=Cc2ccc(Cl)c(Cl)c2)C(=O)N1` [PX072002], the IC50 in experiment [1] was found to be 225 µM.

`O=C1NC(=O)C(=Cc2ccc(O)cc2)C(=O)N1` [PX089377] gave an IC50 in experiment [1] of 400 µM.

`COc1cccc(N2C(=O)/C(=C/c3ccsc3)C(=O)NC2=S)c1` [PX106287]: in experiment [2], the concentration for half-maximal inhibition (IC50) worked out at 100 µM.

With `COc1ccc(OC)c(N2C(=O)/C(=C/c3ccco3)C(=O)NC2=S)c1` [PX106274], the IC50 in experiment [1] amounted to 29 µM.

In the case of `COc1ccc(C=C2C(=O)NC(=O)NC2=O)cc1` [PX089375], the concentration for half-maximal inhibition (IC50) in experiment [1] is 200 µM.

Turning to `COc1ccc(C=C2C(=O)NC(=O)NC2=O)c(Cl)c1OC` [PX074728], in experiment [1], half-maximal inhibition (IC50) required 125 µM.

Regarding `CCOc1ccc(C=C2C(=O)NC(=O)NC2=O)cc1` [PX072012], the IC50 in experiment [1] was found to be 175 µM.

Turning to `COc1ccc(C=C2C(=O)N(c3ccccc3)C(=S)N(c3ccccc3)C2=O)cc1OC` [PX089646], the midpoint of inhibition in experiment [1], the IC50, lay at 100 µM.

Regarding `Cc1ccccc1N1C(=O)/C(=C/c2ccco2)C(=O)NC1=S` [PX106130], the IC50 in experiment [1] worked out at 29 µM.

As for `O=C1NC(=O)C(=CC2CC=CCC2)C(=O)N1` (stereo not shown) [PX089369], the 50% inhibitory concentration (IC50) in experiment [1] was determined as 225 µM.

`CCOc1ccccc1C=C1C(=O)NC(=O)NC1=O` [PX075248] gave a 50% inhibitory concentration (IC50) in experiment [1] of 450 µM.

Regarding `O=C1NC(=S)NC(=O)C1=C/C=C/c1ccccc1` [PX072015, 5-(3-Phenyl-allylidene)-2-thioxo-dihydro-pyrimidine-4,6-dione], the IC50 in experiment [2] turned out to be 18 µM.

In experiment [1], `O=C1NC(=O)C(=C/C=N/Nc2ccccc2)C(=O)N1` [PX089620] displayed a concentration for half-maximal inhibition (IC50) of 80 µM.

For `O=C1NC(=S)NC(=O)C1=Cc1c2ccccc2cc2ccccc12` [PX106031, 5-(Anthracen-9-ylmethylene)-2-thioxo-dihydro-pyrimidine-4,6-dione], the half-inhibitory concentration (IC50) in experiment [2] was determined as 50 µM.

For the molecule `COc1ccc(OC)c(C=C2C(=O)NC(=O)NC2=O)c1` [PX075257], the IC50 in experiment [1] was 350 µM.

Take `COc1cccc(C=C2C(=O)NC(=O)NC2=O)c1OC` [PX089371]: in experiment [1], half-maximal inhibition (IC50) required 400 µM.
